SMILES strings stand for the structures. Values joined by “and” are separate entries in the source; they are usually repeats but may differ in a detail not shown here. Identical values can stand only once.

Chain of cAMP and cAMP-inhibited cGMP 3',5'-cyclic phosphodiesterase 10A (Q9Y233 whole entry): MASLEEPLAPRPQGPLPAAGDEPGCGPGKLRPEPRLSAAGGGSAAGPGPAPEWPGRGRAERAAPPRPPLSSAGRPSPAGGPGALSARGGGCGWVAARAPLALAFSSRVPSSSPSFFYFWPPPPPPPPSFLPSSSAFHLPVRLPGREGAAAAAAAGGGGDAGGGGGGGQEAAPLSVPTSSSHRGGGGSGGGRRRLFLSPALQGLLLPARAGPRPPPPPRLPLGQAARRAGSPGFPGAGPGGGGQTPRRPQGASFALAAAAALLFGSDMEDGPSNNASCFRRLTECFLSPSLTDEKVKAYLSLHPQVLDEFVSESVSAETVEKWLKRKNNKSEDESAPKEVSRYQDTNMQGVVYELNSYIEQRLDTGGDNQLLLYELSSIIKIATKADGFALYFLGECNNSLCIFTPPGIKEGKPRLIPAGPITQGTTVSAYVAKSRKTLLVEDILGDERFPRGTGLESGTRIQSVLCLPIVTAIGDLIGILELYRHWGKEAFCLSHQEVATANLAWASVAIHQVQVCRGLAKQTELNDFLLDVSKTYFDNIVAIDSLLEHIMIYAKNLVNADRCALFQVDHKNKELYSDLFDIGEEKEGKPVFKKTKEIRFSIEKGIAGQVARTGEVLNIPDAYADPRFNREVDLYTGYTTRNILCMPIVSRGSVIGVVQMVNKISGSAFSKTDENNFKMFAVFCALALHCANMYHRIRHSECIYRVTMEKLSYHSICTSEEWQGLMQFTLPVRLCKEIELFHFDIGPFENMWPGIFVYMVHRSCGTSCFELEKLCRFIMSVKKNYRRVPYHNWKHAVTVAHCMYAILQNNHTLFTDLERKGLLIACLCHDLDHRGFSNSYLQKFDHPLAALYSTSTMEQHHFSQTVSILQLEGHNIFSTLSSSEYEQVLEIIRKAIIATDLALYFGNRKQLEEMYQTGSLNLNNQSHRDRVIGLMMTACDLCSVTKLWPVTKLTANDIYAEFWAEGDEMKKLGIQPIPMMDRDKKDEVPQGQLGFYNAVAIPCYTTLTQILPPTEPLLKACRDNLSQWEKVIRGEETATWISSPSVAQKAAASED

The assay concerns the target cAMP and cAMP-inhibited cGMP 3',5'-cyclic phosphodiesterase 10A (Homo sapiens, UniProt Q9Y233). Kind of assay: Enzyme Inhibition Assay: To check the inhibition profile, 5 μL of serial diluted compounds were incubated with 5 μL of diluted PDE10 enzyme (BPS Bioscience, San Diego, Calif.) or tissue homogenate in a 384-well polystyrene assay plate (Corning, Corning, N.Y.) for 30 min at room temperature. After incubation, 10 μL of diluted fluorescein labeled cAMP or cGMP substrate were added and incubated for 60 min at room temperature. The reaction was stopped by adding 60 μL of diluted binding reagents and plates were read on an Envision (Perkin Elmer, Waltham, Mass.) for time resolved fluorescence resonance energy transfer. The data were analyzed with GraphPad Prism (La Jolla, Calif.).
With `COc1ccc(Cn2c(Nc3ccc(Oc4ncccc4C4CCOCC4)cc3)nc3ccccc32)cc1`, the IC50 worked out at 1.7 nM. Turning to `O=C(c1ccc(Oc2ncccc2-c2ccncc2)cc1)c1nc2ccccc2[nH]1`, the IC50 stood at 0.256 nM. For the compound `C[C@]1(O)CC[C@@H](c2cccnc2Oc2ccc(Nc3nc4ccccc4s3)cc2)CC1`, the half-maximal inhibitory concentration (IC50) was found to be 12.6 nM. `Fc1ccc(Cn2c(Nc3ccc(Oc4ncccc4C4CCOCC4)cc3)nc3ccccc32)cc1` yielded an IC50 of 9.12 nM. `CSc1cncc(-c2cccnc2Oc2ccc(C(=O)c3nc4ccccc4[nH]3)cc2)c1` had a half-inhibitory concentration (IC50) of 1.06 nM. In the case of `O=C(c1ccc(Oc2ncccc2[C@H]2CC[C@](O)(C(F)(F)F)CC2)cc1)c1nc2ccccc2[nH]1`, the half-maximal inhibitory concentration (IC50) came to 12.7 nM.

In turn, `O=C(c1ccc(Oc2ncccc2C(=O)N[C@H](CO)Cc2ccc(O)cc2)cc1)c1nc2ccccc2[nH]1` came in with an IC50 of 3.65 nM. Compound `O=C(c1ccc(Oc2ncccc2-c2cccnc2)cc1)c1nc2ccccc2s1` returned an IC50 of 32 nM. As to `CC(=O)N1CCC[C@@H](c2cccnc2Oc2ccc(Nc3nc4ccccc4s3)cc2)C1`, the IC50 worked out at 0.268 nM.

`COc1cnccc1-c1cccnc1Oc1ccc(Nc2nc3ccccc3s2)cc1` yielded a 50% inhibitory concentration (IC50) of 0.747 nM. As for `CC(=O)N1CCC(c2cccnc2Oc2ccc([C@H](O)c3nc4ccccc4[nH]3)cc2)CC1`, the half-inhibitory concentration (IC50) is 4.2 nM. Take `c1cnc(Oc2ccc(Nc3nc4ccccc4s3)cc2)c(-c2ccc3c(c2)OCCO3)c1`: the IC50 was determined as 43.9 nM. Compound `O=C(c1ccc(Oc2ncccc2C2(F)CCOCC2)cc1)c1nc2ccccc2[nH]1` gave an IC50 of 0.311 nM. `COc1cccnc1-c1cccnc1Oc1ccc(C(=O)c2nc3ccccc3[nH]2)cc1` returned an IC50 of 17.1 nM.

`O=C(c1ccc(Oc2ncccc2[C@H]2CCC[C@H](O)C2)cc1)c1nc2ccccc2[nH]1` displayed an IC50 of 1.71 nM. Compound `CN(c1ccc(Oc2ncccc2-c2cccnc2)cc1)c1nc2ccccc2s1` came in with a 50% inhibitory concentration (IC50) of 15.2 nM. With `COc1nc2ccccc2cc1-c1cccnc1Oc1ccc(C(=O)c2nc3ccccc3[nH]2)cc1`, the IC50 worked out at 419 nM. Turning to `O=C(c1ccc(Oc2ncccc2C2CCOC2)cc1)c1nc2ccccc2n1CCF` (stereo not drawn), the 50% inhibitory concentration (IC50) was 2.29 nM. The compound `O=C(c1ccc(Oc2ncccc2Br)cc1)c1nc2ccc(F)cc2[nH]1` registered an IC50 of 74.6 nM. In turn, `O[C@H]1CCC[C@@H](c2cccnc2Oc2ccc(Nc3nc4ccccc4s3)cc2)C1` showed a half-maximal inhibitory concentration (IC50) of 3.75 nM. In turn, `O=C(c1ccc(Oc2ncccc2-c2cccnc2)cc1)c1nc2ncccc2[nH]1` gave a half-inhibitory concentration (IC50) of 4.81 nM. In the case of `C[C@]1(O)CC[C@H](c2cccnc2Oc2ccc(C(=O)c3nc4ccccc4[nH]3)cc2)C1`, the IC50 stood at 0.662 nM. As to `O=C(c1ccc(Oc2ncccc2-c2cccnc2F)cc1)c1nc2ccccc2[nH]1`, the IC50 was 0.162 nM.

Turning to `c1cnc(Oc2ccc(Nc3nc4ccccc4s3)cc2)c(-c2cccc3ncccc23)c1`, the IC50 was determined as 6.91 nM. As for `O=C1C=C(c2cccnc2Oc2ccc(Nc3nc4ccccc4s3)cc2)CC1`, the figure is 2.84 nM; as for `C[C@]1(O)CC[C@H](c2cccnc2Oc2ccc(Nc3nc4ccccc4s3)cc2)CC1`, 4.51 nM. In the case of `COc1cccc(-c2cccnc2Oc2ccc(C(=O)c3nc4ccccc4[nH]3)cc2)n1`, the IC50 turned out to be 2.32 nM. As for `O=C(c1ccc(Oc2ncccc2[C@H]2CC[C@]3(CCO3)CC2)cc1)c1nc2ccccc2[nH]1`, the IC50 came out at 0.641 nM.

The compound `CC(=O)N1CC=C(c2cncnc2Oc2ccc(C(=O)c3nc4ccccc4[nH]3)cc2)CC1` returned a concentration for half-maximal inhibition (IC50) of 1.56 nM. In the case of `C[C@@]1(O)CCC[C@@H](c2cccnc2Oc2ccc(Nc3nc4ccccc4s3)cc2)C1`, the IC50 turned out to be 3.66 nM. In the case of `C[C@H](CNC(=O)c1cccnc1Oc1ccc(C(=O)c2nc3ccccc3[nH]2)cc1)c1ccccc1`, the IC50 stood at 8.81 nM.

`Brc1cccnc1Oc1ccc(Nc2nc3ccccc3s2)cc1`: the IC50 was 691 nM. `C[C@@H](Cc1ccccn1)NC(=O)c1cccnc1Oc1ccc(C(=O)c2nc3ccccc3[nH]2)cc1`: the IC50 was 0.971 nM and 0.541 nM. In turn, `O[C@H]1CCC[C@H](c2cccnc2Oc2ccc(Nc3nc4ccccc4s3)cc2)C1` registered an IC50 of 9.93 nM. With `O=C(c1ccc(Oc2ncccc2C(=O)NCCc2ccccn2)cc1)c1nc2ccccc2[nH]1` the figure was 1.74 nM; with `CC(=O)N1CCC(c2cccnc2Oc2ccc(C(=O)c3nc4ccccc4n3C)cc2)CC1`, 1.06 nM; with `O=C(c1ccc(Oc2ncccc2Br)cc1)c1nc2ccccc2[nH]1`, 44.7 nM. The compound `Cc1cc(-c2cccnc2Oc2ccc(Nc3nc4ccccc4s3)cc2)ccn1` returned a half-inhibitory concentration (IC50) of 5 nM.

`C[C@]1(O)CCC[C@H](c2cccnc2Oc2ccc(Nc3ccccn3)cc2)C1`: the IC50 is 24.2 nM.

Compound `OC(c1ccc(Oc2ncccc2C2CCOCC2)cc1)c1nc2ccccc2[nH]1` (stereo not drawn) had an IC50 of 45.7 nM. `O=C1CCCC(c2cccnc2Oc2ccc(C(=O)c3nc4ccccc4[nH]3)cc2)CC1` (stereo not drawn) came in with a half-maximal inhibitory concentration (IC50) of 0.077 nM.

In the case of `O=C(c1ccc(Oc2ncccc2C(=O)N[C@@H](CO)Cc2ccccc2)cc1)c1nc2ccccc2[nH]1`, the IC50 was 12.8 nM. For the compound `CC(=O)N1CCC(c2cccnc2Oc2ccc(C(=O)c3nc4ccccc4[nH]3)cc2)CC1`, the IC50 stood at 0.158 nM. Compound `Cc1ccc(-c2cccnc2Oc2ccc(Nc3nc4ccccc4s3)cc2)cn1` had an IC50 of 0.219 nM. For `O[C@@H]1CC[C@H](c2cccnc2Oc2ccc(Nc3nc4ccccc4s3)cc2)C1`, the IC50 was determined as 2.64 nM.

On to `CC(=O)N1CC[C@@H](c2cccnc2Oc2ccc(C(=O)c3nc4ccccc4[nH]3)cc2)C1`, for which the IC50 is 0.528 nM.

`O=C(c1ccc(Oc2ncccc2[C@@H]2CC[C@@H](CO)C2)cc1)c1nc2ccccc2[nH]1` returned an IC50 of 0.315 nM.

For `c1cnc(Oc2ccc(Nc3nc4ccccc4s3)cc2)c(-c2ccncn2)c1`, the half-maximal inhibitory concentration (IC50) was found to be 22.4 nM. In the case of `O[C@H]1CC[C@H](c2cccnc2Oc2ccc(Nc3nc4ccccc4s3)cc2)C1`, the concentration for half-maximal inhibition (IC50) was 1.21 nM.

The compound `O=C(c1ccc(Oc2ncccc2-c2ccnc(Cl)c2)cc1)c1nc2ccccc2[nH]1` yielded an IC50 of 1.63 nM. With `CC(C)(CNC(=O)c1cccnc1Oc1ccc(C(=O)c2nc3ccccc3[nH]2)cc1)c1ccccn1` the figure was 1.48 nM.

`O=C(c1ccc(Oc2ncccc2-c2ccnc3ccccc23)cc1)c1nc2ccccc2[nH]1` gave a half-inhibitory concentration (IC50) of 0.67 nM. With `O=C(c1ccc(Oc2ncccc2C(=O)N[C@H](CO)Cc2ccccc2)cc1)c1nc2ccccc2[nH]1` the figure was 0.839 nM. For the compound `COc1ccc(-c2cccnc2Oc2ccc(C(=O)c3nc4ccccc4[nH]3)cc2)nc1`, the IC50 was determined as 8.77 nM. `O=C(c1ccc(Oc2ncccc2N2CCCCC2)cc1)c1nc2ccccc2[nH]1`: the 50% inhibitory concentration (IC50) worked out at 13.3 nM. As for `OC(c1ccc(Oc2ncccc2C2=CCOCC2)cc1)c1nc2ccccc2s1` (stereo not drawn), the figure is 516 nM. The compound `COC1CCN(c2cccnc2Oc2ccc(Nc3nc4ccccc4s3)cc2)CC1` showed an IC50 of 3.16 nM. As for `Cn1cc(-c2cccnc2Oc2ccc(C(=O)c3nc4ccccc4[nH]3)cc2)cn1`, the figure is 6.28 nM; as for `O=C(c1ccc(Oc2ncccc2-c2cc[nH]c(=O)c2)cc1)c1nc2ccccc2[nH]1`, 1.17 nM. Compound `Cc1cc(-c2cccnc2Oc2ccc(C(=O)c3nc4ccccc4n3C)cc2)ccn1` yielded a half-inhibitory concentration (IC50) of 6.17 nM. As for `C[C@]1(O)CC[C@H](c2cccnc2Oc2ccc(Nc3nc4ccccc4s3)cc2)C1`, the figure is 2.31 nM. In the case of `O=C(c1ccc(Oc2ncccc2[C@H]2CC[C@H](O)CC2)cc1)c1nc2ccccc2[nH]1`, the IC50 is 0.101 nM. Take `COc1ccc(-c2cccnc2Oc2ccc(Nc3nc4ccccc4s3)cc2)cn1`: the IC50 amounted to 23.7 nM.
